According to patent US11203591B2, “Substituted 6-azabenzimidazole compounds” (Gilead Sciences, Inc., priority 2018, dated 2021):

Target: human HPK1 (MAP4K1) (Homo sapiens (Human), UniProt Q92918)
Assay: HPK1 IC50 Assay (TR-FRET peptide phosphorylation)
Type: biochemical
Conditions: recombinant HPK1 kinase domain 0.15 nM, 10 μM ATP, 1 μM STK S1 peptide; geometric mean of multiple experiments
Summary of the method: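 Readout: TR-FRET (665 nm/620 nm) after EDTA stop, detecting STK S1 peptide (1 μM) phosphorylation by 0.15 nM HPK1 kinase domain, ATP-pre-activated, at 10 μM ATP over 3 h, 25° C, pH 7.0. IC50s from four-parameter variable-slope fits, normalized to staurosporine and DMSO, averaged geometrically.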

human HPK1 (MAP4K1), sequence (Q92918 17-274): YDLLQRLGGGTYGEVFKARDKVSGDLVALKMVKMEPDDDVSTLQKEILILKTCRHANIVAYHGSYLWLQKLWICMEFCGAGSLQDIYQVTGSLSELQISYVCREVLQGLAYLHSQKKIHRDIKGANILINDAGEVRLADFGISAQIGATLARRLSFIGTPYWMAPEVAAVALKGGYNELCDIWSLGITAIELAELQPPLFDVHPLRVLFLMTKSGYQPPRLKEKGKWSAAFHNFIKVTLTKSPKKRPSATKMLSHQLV

Structure (SMILES)	IC50 [nM]
CNC(=O)c1cc(Nc2nc(-c3ccc4c(c3)N([C@H]3C[C@@H](N5CCC[C@@H](F)C5)C3)C(=O)C43CCN(C4COC4)CC3)cc3ncn(C(C)C)c23)c(F)cc1C [Example 170, 4-fluoro-5-((6-(1-((1S,3s)-3-((R)-3-fluoropiperidin-1-yl)cyclobutyl)-1′-(oxetan-3-yl)-2-oxospiro[indoline-3,4′-piperidin]-6-yl)-3-isopropyl-3H-imidazo[4,5-c]pyridin-4-yl)amino)-N,2-dimethylbenzamide]	0.8
CCNC(=O)c1cc(Nc2nc(-c3ccc4c(c3)N([C@H]3C[C@@H](N5CCC[C@@H](F)C5)C3)C(=O)C43CCN(C4COC4)CC3)cc3ncn(C(C)C)c23)c(F)cc1C [Example 171]	0.2
Cc1cc(F)c(Nc2nc(-c3ccc4c(c3)N([C@H]3C[C@@H](N5CCC[C@@H](F)C5)C3)C(=O)C43CCN(C4COC4)CC3)cc3ncn(C(C)C)c23)cc1C(=O)NC(C)C [Example 172]	0.3
CNC(=O)c1cc(Nc2nc(-c3ccc4c(c3)N([C@H]3C[C@@H](N5CCCCC5)C3)C(=O)C43CCN(C4COC4)CC3)cc3ncn(C4CC4)c23)ccc1C [Example 173]	0.08
Cc1ccc(Nc2nc(-c3ccc4c(c3)N([C@H]3C[C@@H](N5CCCCC5)C3)C(=O)C4(C)C)cc3ncn(C(C)C)c23)cc1C(=O)NC1(CF)CC1 [Example 174, 5-((6-(3,3-dimethyl-2-oxo-1-((1s,3s)-3-(piperidin-1-yl)cyclobutyl)indolin-6-yl)-3-isopropyl-3H-imidazo[4,5-c]pyridin-4-yl)amino)-N-(1-(fluoromethyl)cyclopropyl)-2-methylbenzamide]	0.09
CNC(=O)c1cc(Nc2nc(-c3ccc4c(c3)N([C@H]3C[C@@H](N5CCCCC5)C3)C(=O)C4(C)C)cc3ncn(C(C)C)c23)c(F)cc1C [Example 175]	0.1
Cc1cc(F)c(Nc2nc(-c3ccc4c(c3)N([C@H]3C[C@@H](N5CCCCC5)C3)C(=O)C4(C)C)cc3ncn(C(C)C)c23)cc1C(=O)NC(C)C [Example 176]	0.2
CNC(=O)c1cc(Nc2nc(-c3ccc4c(c3)N([C@H]3C[C@@H](N5CCCCC5)C3)C(=O)C43CN(C(C)=O)C3)cc3ncn(C(C)C)c23)c(F)cc1C [Example 177]	0.4
CCNC(=O)c1cc(Nc2nc(-c3ccc4c(c3)N([C@H]3C[C@@H](N5CCCCC5)C3)C(=O)C43CN(C(C)=O)C3)cc3ncn(C(C)C)c23)c(F)cc1C [Example 178]	0.3
CC(=O)N1CC2(C1)C(=O)N([C@H]1C[C@@H](N3CCCCC3)C1)c1cc(-c3cc4ncn(C(C)C)c4c(Nc4cc(C(=O)NC(C)C)c(C)cc4F)n3)ccc12 [Example 179]	1.1
CC(=O)N1CCC2(CC1)C(=O)N([C@H]1C[C@@H](N3CCCCC3)C1)c1cc(-c3cc4ncn(C(C)C)c4c(Nc4cc(C(=O)NC(C)C)c(F)cc4F)n3)ccc12 [Example 180]	0.2
CNC(=O)c1cc(Oc2nc(-c3ccc4c(c3)N([C@H]3C[C@@H](N5CCC(C)(C)C5)C3)C(=O)C43CCN(C(C)=O)CC3)cc3ncn(C(C)C)c23)ccc1C [Example 181]	0.2
CNC(=O)c1cc(Nc2nc(-c3ccc4c(c3)N([C@H]3C[C@@H](N5CCCCC5)C3)C(=O)C4(C)C)cc3ncn(C(C)C)c23)c(F)cc1F [Example 182]	0.2
Cc1ccc(Nc2nc(-c3ccc4c(c3)N([C@H]3C[C@@](C)(N5CCCCC5)C3)C(=O)C4(C)C)cc3ncn(C4CC4)c23)cc1C(N)=O [Example 183, 5-((3-cyclopropyl-6-(3,3-dimethyl-1-((1s,3s)-3-methyl-3-(piperidin-1-yl)cyclobutyl)-2-oxoindolin-6-yl)-3H-imidazo[4,5-c]pyridin-4-yl)amino)-2-methylbenzamide]	0.05
Cc1ccc(Nc2nc(-c3ccc4c(c3)N([C@H]3C[C@@H](N5CCCCC5)C3)C(=O)C4(F)F)cc3ncn(C4CC4)c23)cc1C(N)=O [Example 184]	0.9
Cc1c(C(=O)NC2(C(F)F)CC2)cc(Nc2nc(-c3cnc4c(c3)N([C@H]3C[C@@](C)(N5CCCCC5)C3)C(=O)C4(C)C)cc3ncn(C(C)C)c23)c(F)c1F [Example 185, N-(1-(difluoromethyl)cyclopropyl)-5-((6-(3,3-dimethyl-1-((1s,3s)-3-methyl-3-(piperidin-1-yl)cyclobutyl)-2-oxo-2,3-dihydro-1H-pyrrolo[3,2-b]pyridin-6-yl)-3-isopropyl-3H-imidazo[4,5-c]pyridin-4-yl)amino)-3,4-difluoro-2-methylbenzamide]	0.1
Cc1c(C(=O)NC2(CF)CC2)cc(Nc2nc(-c3cnc4c(c3)N([C@H]3C[C@@](C)(N5CCCCC5)C3)C(=O)C4(C)C)cc3ncn(C(C)C)c23)c(F)c1F [Example 186, 5-((6-(3,3-Dimethyl-1-((1s,3s)-3-methyl-3-(piperidin-1-yl)cyclobutyl)-2-oxo-2,3-dihydro-1H-pyrrolo[3,2-b]pyridin-6-yl)-3-isopropyl-3H-imidazo[4,5-c]pyridin-4-yl)amino)-3,4-difluoro-N-(1-(fluoromethyl)cyclopropyl)-2-methylbenzamide]	0.07
Cc1c(C(=O)NC2(C(F)F)CC2)cc(Nc2nc(-c3cnc4c(c3)N([C@H]3C[C@@](C)(N5CCC(F)C6(CC6)C5)C3)C(=O)C4(C)C)cc3ncn(C(C)C)c23)c(F)c1F (stereo partly shown) [Example 187, N-(1-(Difluoromethyl)cyclopropyl)-3,4-difluoro-5-((6-(1-((1s,3s)-3-(8-fluoro-5-azaspiro[2.5]octan-5-yl)-3-methylcyclobutyl)-3,3-dimethyl-2-oxo-2,3-dihydro-1H-pyrrolo[3,2-b]pyridin-6-yl)-3-isopropyl-3H-imidazo[4,5-c]pyridin-4-yl)amino)-2-methylbenzamide]	0.2
Cc1c(C(=O)NC2(C(F)F)CC2)cc(Nc2nc(-c3cnc4c(c3)N([C@H]3C[C@@](C)(N5CCOC(C)(C)C5)C3)C(=O)C4(C)C)cc3ncn(C(C)C)c23)c(F)c1F [Example 188, N-(1-(Difluoromethyl)cyclopropyl)-5-((6-(1-((1s,3s)-3-(2,2-dimethylmorpholino)-3-methylcyclobutyl)-3,3-dimethyl-2-oxo-2,3-dihydro-1H-pyrrolo[3,2-b]pyridin-6-yl)-3-isopropyl-3H-imidazo[4,5-c]pyridin-4-yl)amino)-3,4-difluoro-2-methylbenzamide]	0.4
Cc1c(C(=O)NC2(C(F)F)CC2)cc(Nc2nc(-c3cnc4c(c3)N([C@H]3C[C@@](C)(N5C[C@H]6COC[C@H]6C5)C3)C(=O)C4(C)C)cc3ncn(C(C)C)c23)c(F)c1F [Example 189, N-(1-(Difluoromethyl)cyclopropyl)-5-((6-(3,3-dimethyl-1-((1S,3s)-3-methyl-3-((3 aR,6aS)-tetrahydro-1H-furo[3,4-c]pyrrol-5(3H)-yl)cyclobutyl)-2-oxo-2,3-dihydro-1H-pyrrolo[3,2-b]pyridin-6-yl)-3-isopropyl-3H-imidazo[4,5-c]pyridin-4-yl)amino)-3,4-difluoro-2-methylbenzamide]	0.2
Cc1c(C(=O)NC2(C(F)F)CC2)cc(Nc2nc(-c3cnc4c(c3)N(C3CC(C)(N5CCC6C[C@H]5CO6)C3)C(=O)C4(C)C)cc3ncn(C(C)C)c23)c(F)c1F (stereo partly shown) [Example 191, 5-((6-(1-((1s,3s)-3-(6-oxa-2-azabicyclo[3.2.1]octan-2-yl)-3-methylcyclobutyl)-3,3-dimethyl-2-oxo-2,3-dihydro-1H-pyrrolo[3,2-b]pyridin-6-yl)-3-isopropyl-3H-imidazo[4,5-c]pyridin-4-yl)amino)-N-(1-(difluoromethyl)cyclopropyl)-3,4-difluoro-2-methylbenzamide]	0.09
Cc1c(C(=O)NC2(C(F)F)CC2)cc(Nc2nc(-c3cnc4c(c3)N(C3CC(C)(N5CCC6C[C@H]5CO6)C3)C(=O)C4(C)C)cc3ncn(C(C)C)c23)c(F)c1F (stereo partly shown) [Example 192, 5-((6-(1-((1s,3s)-3-(6-oxa-2-azabicyclo[3.2.1]octan-2-yl)-3-methylcyclobutyl)-3,3-dimethyl-2-oxo-2,3-dihydro-1H-pyrrolo[3,2-b]pyridin-6-yl)-3-isopropyl-3H-imidazo[4,5-c]pyridin-4-yl)amino)-N-(1-(difluoromethyl)cyclopropyl)-3,4-difluoro-2-methylbenzamide]	0.1
Cc1c(C(=O)NC2(C(F)F)CC2)cc(Nc2nc(-c3cnc4c(c3)N([C@H]3C[C@@](C)(N5CCOC6(CC6)C5)C3)C(=O)C4(C)C)cc3ncn(C(C)C)c23)c(F)c1F [Example 193, N-(1-(Difluoromethyl)cyclopropyl)-5-((6-(3,3-dimethyl-1-((1s,3s)-3-methyl-3-(4-oxa-7-azaspiro[2.5]octan-7-yl)cyclobutyl)-2-oxo-2,3-dihydro-1H-pyrrolo[3,2-b]pyridin-6-yl)-3-isopropyl-3H-imidazo[4,5-c]pyridin-4-yl)amino)-3,4-difluoro-2-methylbenzamide]	0.2
Cc1c(C(=O)NC2(C(F)F)CC2)cc(Nc2nc(-c3cnc4c(c3)N([C@H]3C[C@@](C)(N5CCCC6(CC6)C5)C3)C(=O)C4(C)C)cc3ncn(C(C)C)c23)c(F)c1F [Example 194, N-(1-(Difluoromethyl)cyclopropyl)-5-((6-(3,3-dimethyl-1-((1s,3s)-3-methyl-3-(5-azaspiro[2.5]octan-5-yl)cyclobutyl)-2-oxo-2,3-dihydro-1H-pyrrolo[3,2-b]pyridin-6-yl)-3-isopropyl-3H-imidazo[4,5-c]pyridin-4-yl)amino)-3,4-difluoro-2-methylbenzamide]	0.06
Cc1c(C(=O)NC2(C(F)F)CC2)cc(Nc2nc(-c3cc4c(nc3F)C(C)(C)C(=O)N4[C@H]3C[C@@](C)(N4CCCCC4)C3)cc3ncn(C(C)C)c23)c(F)c1F [Example 195, N-(1-(Difluoromethyl)cyclopropyl)-3,4-difluoro-5-((6-(5-fluoro-3,3-dimethyl-1-((1s,3s)-3-methyl-3-(piperidin-1-yl)cyclobutyl)-2-oxo-2,3-dihydro-1H-pyrrolo[3,2-b]pyridin-6-yl)-3-isopropyl-3H-imidazo[4,5-c]pyridin-4-yl)amino)-2-methylbenzamide]	0.07
